In the NIST ThermoML archive (doi:10.1021/je700350b):
± gives the expanded uncertainty stated by the source.

Assays:
[1] = 101.33 kPa, Liquid, Vibrating tube method
[2] = xn = mol fraction of the nth substance listed; details: x2 = 0; for surface tension liquid-gas: Ring tensiometer; for viscosity: 101.33 kPa, Liquid

Row | SMILES | mass density ([1]; 293.15 K) [kg/m3] | mass density ([1]; 298.15 K) [kg/m3] | surface tension liquid-gas ([2]; 283.15 K) [mN/m] | surface tension liquid-gas ([2]; 288.15 K) [mN/m] | surface tension liquid-gas ([2]; 293.15 K) [mN/m] | surface tension liquid-gas ([2]; 298.15 K) [mN/m] | viscosity ([2]; 298.15 K) [mPa·s] | surface tension liquid-gas ([2]; 303.15 K) [mN/m] | viscosity ([2]; 303.15 K) [mPa·s]
1 | CCN(CC)CCO [(diethylamino)ethanol] | 884.14 ± 0.3 | 879.5 ± 0.3 |  |  |  |  |  |  | 
2 | O [water] + CCN(CC)CCO |  |  | 73.74 ± 2.3 | 73.14 ± 2.2 | 72.59 ± 2.2 | 71.84 ± 2.2 | 0.89 ± 0.014 | 71.2 ± 0.98 | 0.794 ± 0.013
